Experimental data taken from BindingDB's records for PubMed 34889100 (University of Health Sciences and Pharmacy, 2021).

Biological target: Bile acid receptor NR1H4 (Homo sapiens) (UniProt Q96RI1)
Test: Agonist activity at FXR in human HepG2 cells

Sequence of Bile acid receptor NR1H4 (Homo sapiens) (Q96RI1 whole entry, looked up): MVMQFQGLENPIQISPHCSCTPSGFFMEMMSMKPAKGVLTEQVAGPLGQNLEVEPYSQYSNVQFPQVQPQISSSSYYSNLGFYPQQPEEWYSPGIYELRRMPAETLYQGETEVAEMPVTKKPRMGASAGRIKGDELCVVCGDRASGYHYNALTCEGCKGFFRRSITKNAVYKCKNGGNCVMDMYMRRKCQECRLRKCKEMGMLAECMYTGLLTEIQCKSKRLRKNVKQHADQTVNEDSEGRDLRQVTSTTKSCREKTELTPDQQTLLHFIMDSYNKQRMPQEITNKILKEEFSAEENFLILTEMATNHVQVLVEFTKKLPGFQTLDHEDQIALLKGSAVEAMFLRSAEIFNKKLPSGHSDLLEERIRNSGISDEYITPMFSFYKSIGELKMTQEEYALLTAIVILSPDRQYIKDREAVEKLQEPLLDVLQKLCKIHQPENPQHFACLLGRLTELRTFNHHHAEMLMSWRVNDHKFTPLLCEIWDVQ

| SMILES | EC50 [pM] |
| --- | --- |
| O=C(O)c1ccc([C@@H]2C[C@H]2c2ccc(OCc3c(-c4c(Cl)cccc4Cl)noc3C3CC3)cc2Cl)cc1 | 750 |
| O=C(O)c1cc(F)c2nc(N3C[C@@H]4C[C@H]3C[C@H]4OCc3c(-c4ccccc4OC(F)(F)F)noc3C3CC3)sc2c1 | 350 |
